Experimental data published in patent publication US20170260285A1, “METHODS FOR TREATING CANCER” (UNIVERSITY OF IOWA RESEARCH FOUNDATION, priority 2014, published 2017).
Entries after “also recorded” stand apart in the source; their conditions may differ. Residues, ends and D or L forms follow the SMILES beside them. *: point of attachment. Cbz = O=C(OCc1ccccc1)*; CH2F = FC*

Assays:
Cal-27 HNSCC cells [1] = assay: IL-1α release by ELISA in Cal-27 cells; format: cell-based, human; details: for erlotinib-induced IL-1α release: agent 1 h then erlotinib 5 μM 48 h; for baseline IL-1α levels: agent 1 h then DMSO 48 h
Method: (§1) Erlotinib (ERL; Tarceva) and anakinra (ANA; Kineret) were obtained from the inpatient pharmacy at the University of Iowa Hospitals and Clinics. Drugs were added to cells at final concentrations of 5 μM ERL and 10 ng/mL or 50 ng/mL ANA. Human IgG and […] (DMSO) were used as controls and were obtained from Sigma Aldrich. Human IL-1α, IL-1β, and IL-18Rα neutralizing antibodies were obtained from R&D Systems and were used at a concentration of 0.5 μg/mL. Recombinant human IL-1α was obtained from Life Technologies and administered at a concentration of 1 ng/mL. Ac-Y-VAD-cho, a caspase-1 inhibitor (CalBioChem), was suspended in DMSO and added at a concentration of […], a pan-caspase inhibitor (Promega) was diluted in DMSO and added at a concentration of 20 μM. TLR agonists were used at the following concentrations: Pam3CSK4 (200ng/mL), FSL-1 (100 ng/mL), Poly I:C (20 μg/mL), LPS (200 ng/mL), Flagellin (200 ng/mL), Gardiquimod (1 μg/mL), CL075 (1 μg/mL), and E. coli DNA (1 μg/mL). All TLR agonists were obtained from InvivoGen. The required volume of each drug was added directly to complete cell culture media on cells to achieve the indicated final concentrations.
(§2) Levels of IL-6, IL-1α and IL-1β of treated cells were determined by ELISA. The culture media of the treated cells were harvested and each cytokine was detected according to the manufacturer's protocol using the Human Quantikine ELISA Kits (R&D Systems, Minneapolis, Minn.).
(§3) Erlotinib (ERL; Tarceva), anakinra (ANA; Kineret) and N-acetyl cysteine (NAC; Acetadote) were obtained from the inpatient pharmacy at the University of Iowa Hospitals and Clinics. Drugs were added to cells at final concentrations of 5 μM ERL, 10 ng/mL or 50 ng/mL ANA and 20 mM NAC. Human IgG and […] (DMSO) were used as controls and were obtained from Sigma Aldrich. Pegylated catalase (CAT; Sigma Aldrich) was used at a final concentration of 100 U/mL. Human IL-1α, IL-1β, and IL-18Ra neutralizing antibodies were obtained from R&D Systems and were used at a concentration of 0.5 μg/mL. Recombinant human IL-1α was obtained from Life Technologies and administered at a concentration of 1 ng/mL. Ac-Y-VAD-cho (CalBioChem) was suspended in DMSO and used at 5 μM. Z-VAD-fmk (Promega) was diluted in DMSO and used at 20 μM. TLR agonists were used at the following concentrations: Pam3CSK4 (200 ng/mL), FSL-1 (100 ng/mL), Poly I:C (20 μg/mL), LPS (200 ng/mL), Flagellin (200 ng/mL), Gardiquimod (1 μg/mL), CL075 (1 μg/mL), and E. coli DNA (1 μg/mL). All TLR agonists were obtained from InvivoGen. The required volume of each drug was added directly to complete cell culture media on cells to achieve the indicated final concentrations.
(§4) Levels of IL-6, IL-1α and IL-1β of treated cells were determined by ELISA. The culture media of the treated cells were harvested and each cytokine was detected according to the manufacturer's protocol using Human Quantikine ELISA Kits (R&D Systems, Minneapolis, Minn.).

SQ20B HNSCC cells [2] = assay: IL-6 secretion by ELISA in SQ20B cells; format: cell-based, human; details: for erlotinib-induced IL-6: agent pre-treatment then erlotinib 5 μM 48 h; for baseline IL-6 (absence of erlotinib): agent 2 h (1 h for caspase inhibitors, NAC, CAT) then DMSO 48 h
Text: (§5) Cal-27 and FaDu human head and neck squamous carcinoma (HNSCC) cells were obtained from the American Type Culture Collection (ATCC, Manassas, Va.). SQ20B HNSCC cells (16) were a gift from Dr. Anjali Gupta (Department of Radiation Oncology, The University of Iowa). All HNSCC cell lines are EGFR positive and are sensitive to EGFR inhibitors. All cell lines were authenticated by the ATCC for viability (before freezing and after thawing), growth, morphology and isoenzymology. Cells were stored according to the supplier's instructions and used over a course of no more than 3 months after resuscitation of frozen aliquots. Cultures were maintained in 5% CO2 and air humidified in a 37° C. incubator.
as §1, §2
as §5, with “(20)” for “(16)”
as §3, with “The required volume of each drug was added directly to complete cell culture media on cells to achieve the indicated final concentrations.” left out

SQ20B HNSCC cells [3] = assay: IL-1α release by ELISA in SQ20B cells; format: cell-based, human; details: for erlotinib-induced IL-1α release: agent 1 h then erlotinib 5 μM 48 h; for baseline IL-1α levels: agent 1 h then DMSO 48 h
Method: as §1, §2, §3, §4

Cal-27 HNSCC cells [4] = assay: IL-6 secretion by ELISA in Cal-27 cells; format: cell-based, human; details: for erlotinib-induced IL-6: agent pre-treatment then erlotinib 5 μM 48 h; for baseline IL-6 (absence of erlotinib): agent 2 h (1 h for caspase inhibitors, NAC, CAT) then DMSO 48 h
Text: as §5, §1, §2
as §5, with “(20)” for “(16)”
as §3, with “The required volume of each drug was added directly to complete cell culture media on cells to achieve the indicated final concentrations.” left out

SQ20B cells = assay: Clonogenic survival assay; format: cell-based, human; details: Z-VAD 20 μM with erlotinib
Method: Clonogenic survival was determined as previously described (17). Individual assays were performed with multiple dilutions with at least four cloning dishes per data point, repeated in at least 3 separate experiments. Tumor cell implantation: Female 4-5 week old athymic-nu/nu nude mice were purchased from Harlan Laboratories (Indianapolis, IN). Mice were housed in a pathogen-free barrier room in the Animal Care Facility at the University of Iowa and handled using aseptic procedures. All procedures were approved by the IACUC committee of the University of Iowa and conformed to the guidelines established by the NIH. Mice were allowed at least 3 days to acclimate prior to beginning experimentation, and food and water were made freely available. Tumor cells (shCON or shMyD88) were inoculated into nude mice by subcutaneous injection of 0.1 mL aliquots of saline containing 2×10^6 FaDu cells into the right flank using 26-gauge needles.
Clonogenic survival was determined as previously described (22). Individual assays were performed with multiple dilutions with at least four cloning dishes per data point, repeated in at least 3 separate experiments.

SQ20B and Cal27 cells = format: cell-based
Method: To determine whether cell death is responsible for IL-1α release, we used Z-VAD-fmk, a pan-caspase inhibitor, to prevent cell death. We also tested Ac-Y-VAD-cho, caspase-1 inhibitor, to assess inflammasome involvement. After testing various combinations of these inhibitors, we found an optimal concentration of 20 μM Z-VAD and 5μM Y-VAD. […] To confirm that the pan-caspase inhibitor was effectively blocking cell death, we performed a clonogenic assay with erlotinib- and Z-VAD-treated cells in SQ20B cells.

HNSCC tumor cell lines = details: previous studies (ref. 10); cited from earlier work
[5] = listed as pan-caspase inhibitor

Q: With CC(=O)N[C@@H](CS)C(=O)O [NAC, N-acetyl cysteine] as the molecule, how does the “erlotinib-induced IL-1α release” value (Cal-27 HNSCC cells [1]) read?
A: significantly suppressed

Q: And the “erlotinib-induced IL-6” value (SQ20B HNSCC cells [2])?
A: significantly suppressed

Q: What about the “erlotinib-induced IL-1α release” value (SQ20B HNSCC cells [3]) of the same molecule?
A: significantly suppressed

Q: And the “erlotinib-induced IL-6” value (Cal-27 HNSCC cells [4])?
A: significantly suppressed

Q: For COC(=O)C[C@H](NC(=O)[C@H](C)NC(=O)[C@@H](NC(=O)OCc1ccccc1)C(C)C)C(=O)CF [Z-VAD-fmk] (Cbz-Val-Ala-Asp(OMe)-CH2F), which erlotinib-induced cell death (SQ20B cells) is on record?
A: blocked

Q: What about the erlotinib-induced cell death (SQ20B cells; listed as Z-VAD) of the same molecule?
A: significantly blocked

Q: And the erlotinib-induced cell death (SQ20B cells; listed as ZVAD)?
A: blocked

Q: What about the erlotinib-induced cell death (SQ20B cells; [5]) of the same molecule?
A: blocked

Q: And the “highest dose that did not result in toxicity (optimal concentration)” value (SQ20B and Cal27 cells)?
A: 20 µM

Q: And the “baseline IL-1α levels” value (Cal-27 HNSCC cells [1])?
A: significantly reduced

Q: What about the “baseline IL-1α levels” value (Cal-27 HNSCC cells [1]; listed as Z-VAD) of the same molecule?
A: significantly reduce

Q: What about the “erlotinib-induced IL-1α release” value (Cal-27 HNSCC cells [1]) of the same molecule?
A: significantly reduced

Q: And the “erlotinib-induced IL-1α release” value (Cal-27 HNSCC cells [1]; listed as Z-VAD)?
A: significantly reduce

Q: What about the “erlotinib-induced IL-1α release” value (Cal-27 HNSCC cells [1]; listed as ZVAD) of the same molecule?
A: blocked

Q: And the “erlotinib-induced IL-1α release” value (Cal-27 HNSCC cells [1]; [5])?
A: blocked

Q: And the “baseline IL-1α levels” value (SQ20B HNSCC cells [3])?
A: significantly reduced

Q: What about the “baseline IL-1α levels” value (SQ20B HNSCC cells [3]; listed as Z-VAD) of the same molecule?
A: significantly reduce

Q: And the “erlotinib-induced IL-1α release” value (SQ20B HNSCC cells [3])?
A: significantly reduced

Q: What about the “erlotinib-induced IL-1α release” value (SQ20B HNSCC cells [3]; listed as Z-VAD) of the same molecule?
A: significantly reduce

Q: And the “erlotinib-induced IL-1α release” value (SQ20B HNSCC cells [3]; listed as ZVAD)?
A: blocked

Q: What about the “erlotinib-induced IL-1α release” value (SQ20B HNSCC cells [3]; [5]) of the same molecule?
A: blocked

Q: For CS(=O)(=O)CCNCc1ccc(-c2ccc3ncnc(Nc4ccc(OCc5cccc(F)c5)c(Cl)c4)c3c2)o1 [lapatinib], which “IL-6 expression/secretion in HNSCC cell lines treated with EGFRIs” value (HNSCC tumor cell lines) is on record?
A: significant upregulation

Q: With Ac-Y-VAD-cho as the molecule, how does the “highest dose that did not result in toxicity (optimal concentration)” value (SQ20B and Cal27 cells) read?
A: 5 µM

Q: And the “baseline IL-1α levels” value (Cal-27 HNSCC cells [1])?
A: not observed

Q: What about the “erlotinib-induced IL-1α release” value (Cal-27 HNSCC cells [1]) of the same molecule?
A: did not see a decrease; also recorded: not observed

Q: And the “erlotinib-induced IL-6” value (SQ20B HNSCC cells [2])?
A: did not affect

Q: What about the “erlotinib-induced IL-1α release” value (SQ20B HNSCC cells [3]) of the same molecule?
A: did not see a decrease; also recorded: not observed

Q: What about the “erlotinib-induced IL-6” value (Cal-27 HNSCC cells [4]) of the same molecule?
A: did not affect

Q: What does the source list for anakinra?
A: baseline IL-6 (absence of erlotinib) (SQ20B HNSCC cells [2]): significantly reduced; erlotinib-induced IL-6 (SQ20B HNSCC cells [2]): significantly reduced; also recorded: effectively blocked; erlotinib-induced IL-6 (SQ20B HNSCC cells [2]; listed as Anakinra): effectively blocked; baseline IL-6 (absence of erlotinib) (Cal-27 HNSCC cells [4]): significantly reduced; erlotinib-induced IL-6 (Cal-27 HNSCC cells [4]): significantly reduced; also recorded: effectively blocked; erlotinib-induced IL-6 (Cal-27 HNSCC cells [4]; listed as Anakinra): effectively blocked

Q: Which “IL-6 expression/secretion in HNSCC cell lines treated with EGFRIs” value (HNSCC tumor cell lines) does the source give for panitumumab here?
A: significant upregulation

B1: CAT: Pegylated catalase (Sigma Aldrich), antioxidant, 100 U/mL (protein, UniProt P00432 2-527, looked up)
Catalase: ADNRDPASDQMKHWKEQRAAQKPDVLTTGGGNPVGDKLNSLTVGPRGPLLVQDVVFTDEMAHFDRERIPERVVHAKGAGAFGYFEVTHDITRYSKAKVFEHIGKRTPIAVRFSTVAGESGSADTVRDPRGFAVKFYTEDGNWDLVGNNTPIFFIRDALLFPSFIHSQKRNPQTHLKDPDMVWDFWSLRPESLHQVSFLFSDRGIPDGHRHMNGYGSHTFKLVNANGEAVYCKFHYKTDQGIKNLSVEDAARLAHEDPDYGLRDLFNAIATGNYPSWTLYIQVMTFSEAEIFPFNPFDLTKVWPHGDYPLIPVGKLVLNRNPVNYFAEVEQLAFDPSNMPPGIEPSPDKMLQGRLFAYPDTHRHRLGPNYLQIPVNCPYRARVANYQRDGPMCMMDNQGGAPNYYPNSFSAPEHQPSALEHRTHFSGDVQRFNSANDDNVTQVRTFYLKVLNEEQRKRLCENIAGHLKDAQLFIQKKAVKNFSDVHPEYGSRIQALLDKYNEEKPKNAVHTYVQHGSHLSAREKANL
modifications: PEG
notes: Pegylated catalase (Sigma Aldrich), antioxidant, 100 U/mL
Q: Which “erlotinib-induced IL-1α release” value (Cal-27 HNSCC cells [1]) does the source give for B1 here?
A: significantly suppressed

Q: What about the “erlotinib-induced IL-6” value (SQ20B HNSCC cells [2]) of the same molecule?
A: significantly suppressed

Q: What about the “erlotinib-induced IL-1α release” value (SQ20B HNSCC cells [3]) of the same molecule?
A: significantly suppressed

Q: What about the “erlotinib-induced IL-6” value (Cal-27 HNSCC cells [4]) of the same molecule?
A: significantly suppressed

B2: Exogenous IL-1α: Recombinant human IL-1α from Life Technologies, 1 ng/mL (protein, UniProt P01583 113-271, looked up)
Interleukin-1 alpha: SAPFSFLSNVKYNFMRIIKYEFILNDALNQSIIRANDQYLTAAALHNLDEAVKFDMGAYKSSKDDAKITVILRISKTQLYVTAQDEDQPVLLKEMPEIPKTITGSETNLLFFWETHGTKNYFTSVAHPNLFIATKQDYWVCLAGGPPSITDFQILENQA
Q: Which “baseline IL-6 (absence of erlotinib)” value (SQ20B HNSCC cells [2]) does the source give for B2 here?
A: increased

Q: What about the “erlotinib-induced IL-6” value (SQ20B HNSCC cells [2]) of the same molecule?
A: increased

Q: What about the “baseline IL-6 (absence of erlotinib)” value (Cal-27 HNSCC cells [4]) of the same molecule?
A: increased

Q: And the “erlotinib-induced IL-6” value (Cal-27 HNSCC cells [4])?
A: increased
